Measured values published in patent publication US9745324B2, “Iminothiadiazepane dioxide compounds as BACE inhibitors, compositions, and their use” (Merck Sharp & Dohme Corp., priority 2013, dated 2017).
Like-named read-outs stand apart in the source and are kept apart here.

Columns and labels:
[1] = target: soluble human BACE1 catalytic domain (Homo sapiens (Human), UniProt P56817); experiment: BACE1 HTRF FRET Assay; assay type: biochemical; details: Ki calculated from IC50 using the Cheng-Prusoff equation; QSY7-APPswe-Eu substrate, pH 5.0
Source text: Reagents: Na^+-Acetate pH 5.0; 1% Brij-35; Glycerol; Dimethyl Sulfoxide (DMSO); Recombinant human soluble BACE1 catalytic domain (>95% pure); APP Swedish mutant peptide substrate (QSY7-APP^swe-Eu): QSY7-[…]-Europium-amide (SEQ ID 1).
A homogeneous time-resolved FRET assay can be used to determine IC50 values for inhibitors of the soluble human BACE1 catalytic domain. This assay monitors the increase of 620 nm fluorescence that resulted from BACE1 cleavage of an APPswedish APP^swe mutant peptide FRET substrate (QSY7-[…]-Europium-amide (SEQ ID 1)). This substrate contains an N-terminal QSY7 moiety that serves as a quencher of the C-terminal Europium fluorophore (620 nm Em). […] Inhibition of BACE1 cleavage of the QSY7-APP^swe-Eu substrate by inhibitors is manifested as a suppression of 620 nm fluorescence.
Varying concentrations of inhibitors at 3× the final desired concentration in a volume of 10 ul are preincubated with purified human BACE1 catalytic domain (3 nM in 10 μl) for 30 minutes at 30° C. in reaction buffer containing 20 mM Na-Acetate pH 5.0, 10% glycerol, 0.1% Brij-35 and 7.5% DSMO. Reactions are initiated by addition of 10 μl of 600 nM QSY7-APP^swe-Eu substrate (200 nM final) to give a final reaction volume of 30 μl in a 384 well Nunc HTRF plate. The reactions are incubated at 30° C. for 1.5 hours. The 620 nm fluorescence is then read on a Rubystar HTRF plate reader (BMG Labtechnologies) using a 50 millisecond delay followed by a 400 millisecond acquisition time window. Inhibitor IC50 values are derived from non-linear regression analysis of concentration response curves.

[2] = target: purified human autoBACE-2 (Homo sapiens, UniProt Q9Y5Z0); experiment: BACE-2 Assay (BACE-HTRF assay); assay type: biochemical; details: Ki calculated from IC50 using the Cheng-Prusoff equation, pH 5.0, read-out: BACE2 Ki
Description: DMSO is present at 5% final concentration in the assay. Following laser excitation of sample wells at 320 nm, the fluorescence signal at 620 nm is collected for 400 ms following a 50 μs delay on a RUBYstar HTRF plate reader (BMG Labtechnologies). Raw RFU data is normalized to maximum (1.0 nM BACE/DMSO) and minimum (no enzyme/DMSO) RFU values. […] The Ki values are calculated from the IC50 using the Cheng-Prusoff equation.

[3] = QSY7-EISEVNLDAEFC-Eu-amide substrate

purified human autoBACE-2, sequence (Q9Y5Z0 63-518 limits assumed): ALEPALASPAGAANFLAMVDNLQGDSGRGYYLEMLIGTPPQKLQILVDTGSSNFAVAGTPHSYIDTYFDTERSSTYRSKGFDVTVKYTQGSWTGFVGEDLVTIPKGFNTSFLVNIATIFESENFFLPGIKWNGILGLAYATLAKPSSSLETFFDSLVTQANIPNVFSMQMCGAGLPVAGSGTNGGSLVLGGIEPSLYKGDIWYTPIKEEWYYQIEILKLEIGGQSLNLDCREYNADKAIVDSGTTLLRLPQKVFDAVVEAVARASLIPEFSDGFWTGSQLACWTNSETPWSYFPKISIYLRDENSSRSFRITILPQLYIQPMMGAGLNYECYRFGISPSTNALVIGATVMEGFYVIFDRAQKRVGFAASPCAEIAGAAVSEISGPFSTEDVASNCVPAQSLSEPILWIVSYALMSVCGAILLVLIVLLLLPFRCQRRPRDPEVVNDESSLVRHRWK
soluble human BACE1 catalytic domain, sequence (P56817 75-416): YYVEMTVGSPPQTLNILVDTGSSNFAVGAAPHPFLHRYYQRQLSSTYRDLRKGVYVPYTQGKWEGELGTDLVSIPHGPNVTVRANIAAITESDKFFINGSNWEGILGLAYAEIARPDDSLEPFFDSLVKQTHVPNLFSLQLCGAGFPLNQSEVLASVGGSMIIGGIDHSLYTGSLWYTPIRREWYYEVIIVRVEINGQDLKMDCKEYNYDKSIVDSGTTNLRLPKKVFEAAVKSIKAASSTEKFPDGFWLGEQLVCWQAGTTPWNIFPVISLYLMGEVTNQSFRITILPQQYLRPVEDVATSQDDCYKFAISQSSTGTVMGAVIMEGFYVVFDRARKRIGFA

Row | Ki [1] [µM] | Ki [2, 3] [µM] | SMILES | Ki ([2]; QSY7-[…]-Eu-amide substrate) [µM]
1 | 0.165 | 0.054 | Cc1nc(C(=O)Nc2ccc(F)c([C@]3(C)CN(C)S(=O)(=O)C(C)(C)C(=N)N3)c2)c(C)o1 [Example 32, N-{4-fluoro-3-[(4R)-6-imino-2,4,7,7-tetramethyl-1,1-dioxido-1,2,5-thiadiazepan-4-yl]phenyl}-2,5-dimethyl-1,3-oxazole-4-carboxamide] | 
2 | 4.35 | 1.03 | CN1C[C@@](C)(c2cc(NC(=O)C3CC3)ccc2F)NC(=N)C(C)(C)S1(=O)=O [Example 33, N-{4-fluoro-3-[(4R)-6-imino-2,4,7,7-tetramethyl-1,1-dioxido-1,2,5-thiadiazepan-4-yl]phenyl}cyclopropanecarboxamide] | 
3 | 3.06 | 1.12 | CO[C@@H](C)C(=O)Nc1ccc(F)c([C@]2(C)CN(C)S(=O)(=O)C(C)(C)C(=N)N2)c1 [Example 34, (2S)-N-{4-fluoro-3-[(4R)-6-imino-2,4,7,7-tetramethyl-1,1-dioxido-1,2,5-thiadiazepan-4-yl]phenyl}-2-methoxypropanamide] | 
4 | 5.93 | 0.917 | CC(=O)Nc1ccc(F)c([C@]2(C)CN(C)S(=O)(=O)C(C)(C)C(=N)N2)c1 [Example 35, N-{4-fluoro-3-[(4R)-6-imino-2,4,7,7-tetramethyl-1,1-dioxido-1,2,5-thiadiazepan-4-yl]phenyl}acetamide] | 
5 | 0.015 | 0.195 | C#CCOc1ccc(C(=O)Nc2ccc(F)c([C@]3(C)CN(C)S(=O)(=O)C(C)(C)C(=N)N3)c2)nc1 [Example 36, N-{4-fluoro-3-[(4R)-6-imino-2,4,7,7-tetramethyl-1,1-dioxido-1,2,5-thiadiazepan-4-yl]phenyl}-5-(prop-2-yn-1-yloxy)pyridine-2-carboxamide] | 
6 | 0.153 | 0.361 | CN1C[C@@](C)(c2cc(NC(=O)c3cnc(C(F)(F)F)cn3)ccc2F)NC(=N)C(C)(C)S1(=O)=O [Example 37, N-{4-fluoro-3-[(4R)-6-imino-2,4,7,7-tetramethyl-1,1-dioxido-1,2,5-thiadiazepan-4-yl]phenyl}-5-(trifluoromethyl)pyrazine-2-carboxamide] | 
7 | 0.037 | 0.046 | CN1C[C@@](C)(c2cc(NC(=O)c3ccc(OCF)cn3)ccc2F)NC(=N)C(C)(C)S1(=O)=O [Example 38, N-{4-fluoro-3-[(4R)-6-imino-2,4,7,7-tetramethyl-1,1-dioxido-1,2,5-thiadiazepan-4-yl]phenyl}-5-(fluoromethoxy)pyridine-2-carboxamide] | 
8 | 0.0023 | 0.0343 | C#CCOc1cnc(C(=O)Nc2ccc(F)c([C@]3(C)CN(C)S(=O)(=O)C(C)(C)C(=N)N3)c2)cn1 [Example 39, N-{4-fluoro-3-[(4R)-6-imino-2,4,7,7-tetramethyl-1,1-dioxido-1,2,5-thiadiazepan-4-yl]phenyl}-5-(prop-2-yn-1-yloxy)pyrazine-2-carboxamide] | 

Row | SMILES | Ki [1] [µM] | Ki [2, 3] [µM] | Ki ([2]; QSY7-[…]-Eu-amide substrate) [µM]
9 | CN1C[C@@](C)(c2cc(OCc3ccc(C#N)cc3)ccc2F)NC(=N)C(C)(C)S1(=O)=O [Example 40, (R)-4-((4-fluoro-3-(6-imino-2,4,7,7-tetramethyl-1,1-dioxido-1,2,5-thiadiazepan-4-yl)phenoxy)methyl)benzonitrile] | 0.651 |  | 4.05
10 | CN1C[C@@](C)(c2cc(Nc3nccc4cc(C#N)cnc34)ccc2F)NC(=N)C(C)(C)S1(=O)=O [Example 41, (R)-8-((4-fluoro-3-(6-imino-2,4,7,7-tetramethyl-1,1-dioxido-1,2,5-thiadiazepan-4-yl)phenyl)amino)-1,7-naphthyridine-3-carbonitrile] | 0.02 |  | 0.016
11 | CN1C[C@@](C)(c2cc(Nc3nccc4cc(Br)cnc34)ccc2F)NC(=N)C(C)(C)S1(=O)=O [Example 42, (R)-4-(5-((3-bromo-1,7-naphthyridin-8-yl)amino)-2-fluorophenyl)-6-imino-2,4,7,7-tetramethyl-1,2,5-thiadiazepane 1,1-dioxide] | 0.018 |  | 0.009
12 | COc1cnc2c(Nc3ccc(F)c([C@]4(C)CN(C)S(=O)(=O)C(C)(C)C(=N)N4)c3)nccc2c1 [Example 43, (R)-4-(2-fluoro-5-((3-methoxy-1,7-naphthyridin-8-yl)amino)phenyl)-6-imino-2,4,7,7-tetramethyl-1,2,5-thiadiazepane 1,1-dioxide] | 0.209 |  | 0.24
13 | CN1C[C@@](C)(c2cc(Nc3nccn4ccnc34)ccc2F)NC(=N)C(C)(C)S1(=O)=O [Example 44, (R)-4-(2-fluoro-5-(imidazo[1,2-a]pyrazin-8-ylamino)phenyl)-6-imino-2,4,7,7-tetramethyl-1,2,5-thiadiazepane 1,1-dioxide] | 1.35 |  | 0.27
